# Measurements published in US20230277511A1, “RAPAMYCIN (RAPA) COMPOSITION AND PREPARATION METHOD THEREOF” (priority 2020, published 2023).
# System: AS model mice (ApoE−/− mice)
# Assay: Therapeutic effect on AS in AS model mice (plaque area)
# Type: in vivo
# Settings: 1.5 mg/kg intraperitoneally every two days for 3 months, mean±SD, FIG. 10
# Method: Animal: Apolipoprotein gene-knockout mice (ApoE−/− mice) each with a weight of 18 g to 25 g were purchased from Peking University Laboratory Animal Center.
# Construction of AS model mice: The mice were raised to be 8 weeks old in an SPF-grade environment (room temperature: 23° C., relative humidity: 65%, and 12 h light-dark cycle) and then fed with a high-fat feed for 12 weeks to obtain the AS model mice, and then each of the AS model mice was administered. Blood vessels were collected and stained, and a proportion of a plaque area was calculated according to the following formula: AA:AA=P/PO. The data were expressed by mean±standard deviation (SD). The t-test was adopted for statistical analysis. P<0.05 indicated a significant difference. All data were analyzed by software.
# Grouping and administration regimen: Blank group: Each of the mice was intraperitoneally injected with 0.2 mL of NS every two days. Control group: Each of the mice was intraperitoneally injected with a RAPA solution diluted with NS to a desired concentration (administration amount: 1.5 mg/kg) every two days. Drug group: Each of the mice was intraperitoneally injected with the RAPA composition in Example 4 at 1.5 mg/kg every two days. The administration was conducted continuously for 3 months, during which state changes in mice were observed. […]
compound,measurement,value
"CO[C@H]1C[C@@H]2CC[C@@H](C)[C@@](O)(O2)C(=O)C(=O)N2CCCC[C@H]2C(=O)O[C@H]([C@H](C)C[C@@H]2CC[C@@H](O)[C@H](OC)C2)CC(=O)[C@H](C)/C=C(\C)[C@@H](O)[C@@H](OC)C(=O)[C@H](C)C[C@H](C)/C=C/C=C/C=C/1C [RAPA, rapamycin]",plaque area/total vascular area,48.33%±2.851%
